Measurements published in ChEMBL document CHEMBL3046639, “Syntheses of tetrahydronaphthalenes. Part II” (Tetrahedron, 1994).
Activity calls are given as the source filed them. How the calls were made is not given here.

Experiment: Pre-emergence herbicidal activity against narrowleaf weed at 0.5 lb/acre
Type: functional

| SMILES | Activity |
| --- | --- |
| CC1(C)CCCc2c1cc([N+](=O)[O-])c(F)c2[N+](=O)[O-] | inactive |
| CC1(C)CCCc2c(F)cc(F)cc21 | inactive |
| CC1CCCc2c1cc([N+](=O)[O-])c(F)c2[N+](=O)[O-] (configuration not stated) | inactive |
| COc1cc2c(cc1C(C)=O)C(C)(C)CCC2 | inactive |
| COC(=O)c1cc2c(cc1OC)CCCC2(C)C | inactive |
| CC(=O)c1c(C)cc2c(c1C)CCCC2(C)C | inactive |
| COc1ccc(C(C)=O)c2c1C(C)(C)CCC2 | inactive |
| CCCC1(CCC)CCCc2c1cc([N+](=O)[O-])c(NC(CC)CC)c2[N+](=O)[O-] | inactive |
| COc1c([N+](=O)[O-])cc([N+](=O)[O-])c2c1C(C)(C)CCC2 | inactive |
| CCC(CC)Nc1c([N+](=O)[O-])cc2c(c1[N+](=O)[O-])CCCC2(C)C(C)C (configuration not stated) | inactive |
| CCCCOC(=O)c1c(C)cc2c(c1C)CCCC2(C)C | inactive |
| COc1cc(OC)c2c(c1)C(C)(C)CCC2 | inactive |
| CCNc1c([N+](=O)[O-])cc2c(c1[N+](=O)[O-])CCCC2(C)C | inactive |
| CC(C)C1(C)CCCc2c1cc([N+](=O)[O-])c(N(C)C)c2[N+](=O)[O-] (configuration not stated) | inactive |
| CC(C)C1(C)CCCc2c1cc([N+](=O)[O-])c(F)c2[N+](=O)[O-] (configuration not stated) | inactive |
| Cc1cc2c(c(C)c1C(=O)N(C)C)CCCC2(C)C | inactive |
| CN(C)c1cc2c(cc1[N+](=O)[O-])C(C)(C)CCC2 | inactive |
| CC(C)c1cc(C(C)C)c2c(c1)C(C)(C)CCC2 | inactive |
| CNc1c([N+](=O)[O-])cc2c(c1[N+](=O)[O-])CCCC2(C)C | inactive |
| CCCN(CCC)c1c([N+](=O)[O-])cc2c(c1[N+](=O)[O-])CCCC2(C)C | inactive |
| CN(C)c1c([N+](=O)[O-])cc2c(c1[N+](=O)[O-])CCCC21CCCCC1 | inactive |
| CCCC1(CCC)CCCc2c1cc([N+](=O)[O-])c(N(C)C)c2[N+](=O)[O-] | inactive |
| CN(C)c1c([N+](=O)[O-])cc2c(c1[N+](=O)[O-])CCCC2(C)C | inactive |
| O=[N+]([O-])c1cc2c(c([N+](=O)[O-])c1F)CCCC21CCCCC1 | inactive |
| COC(=O)c1ccc(OC)c2c1CCCC2(C)C | inactive |
| Cc1cc2c(c(C)c1C(=O)O)CCCC2(C)C | inactive |

| SMILES | Activity |
| --- | --- |
| COC(=O)c1c(C)cc2c(c1C)CCCC2(C)C | Active |
| COc1ccc(C(=O)O)c2c1C(C)(C)CCC2 | inactive |
| CCCC1(CCC)CCCc2c1cc([N+](=O)[O-])c(F)c2[N+](=O)[O-] | inactive |
| CC(=O)c1c(F)cc2c(c1F)CCCC2(C)C | inactive |
| Fc1ccc2c(c1)CCCC21CCCCC1 | inactive |
| CC1(C)CCCc2cc(F)c([N+](=O)[O-])cc21 | inactive |
| CCC(CC)Nc1c([N+](=O)[O-])cc2c(c1[N+](=O)[O-])CCCC2C (configuration not stated) | inactive |
| CCC(=O)c1c(C)cc2c(c1C)CCCC2(C)C | inactive |
| CCS(=O)(=O)c1c([N+](=O)[O-])cc2c(c1[N+](=O)[O-])CCCC2(C)C | inactive |
| COc1c2c(cc(F)c1C(C)=O)C(C)(C)CCC2 | inactive |
| CCC(CC)Nc1c([N+](=O)[O-])cc2c(c1[N+](=O)[O-])CCCC2(C)C | Active |
| CCCC1(CCC)CCCc2cc(N(C)C)c([N+](=O)[O-])cc21 | inactive |
| CC1(C)CCCc2c([N+](=O)[O-])cc([N+](=O)[O-])c(F)c21 | inactive |
| CCCC1(CCC)CCCc2cc(F)ccc21 | inactive |
| Cc1cc2c(c(C)c1C(=O)C(Br)(Br)Br)CCCC2(C)C | inactive |
| CN(C)c1c([N+](=O)[O-])cc([N+](=O)[O-])c2c1C(C)(C)CCC2 | inactive |
| CCC(CC)Nc1c([N+](=O)[O-])cc2c(c1[N+](=O)[O-])CCCC21CCCCC1 | inactive |
| COc1c([N+](=O)[O-])cc2c(c1[N+](=O)[O-])CCCC2(C)C | inactive |
| Cc1cc(C)c2c(c1)C(C)(C)CCC2 | inactive |
| CC(C)C1(C)CCCc2cc(F)ccc21 (configuration not stated) | inactive |
| CC1CCCc2cc(F)ccc21 (configuration not stated) | inactive |
| CCOC(=O)c1c(C)cc2c(c1C)CCCC2(C)C | inactive |
| COc1cc2c(cc1C(=O)O)C(C)(C)CCC2 | inactive |
| CCN(CC)c1c([N+](=O)[O-])cc2c(c1[N+](=O)[O-])CCCC2(C)C | inactive |
| CCSc1c([N+](=O)[O-])cc2c(c1[N+](=O)[O-])CCCC2(C)C | inactive |
| COc1c([N+](=O)[O-])cc2c(c1[N+](=O)[O-])CCCC2(C)C(C)C (configuration not stated) | inactive |
